From US10111854B2, “Synthesis and use of amine-containing flavonoids as potent anti-leishmanial agents” (The Hong Kong Polytechnic University, priority 2014, dated 2018)

What was measured:
[1] = system: L. donovani HU3 promastigotes; assay: Anti-promastigote activity (MTS assay), L. donovani HU3; format: cell-based; conditions: 72 hours
In short: (§1)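 Promastigotes (1×10^5 per well) in Schneider's medium pH 6.9 with 10% FBS, exposed to serial compound concentrations for 72 h at 27 °C. Viability by MTS/PMS reduction over 4 h, OD 490 nm; IC50 derived.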

[2] = system: L. amazonensis LV78 promastigotes; assay: Reactive oxygen species (ROS) level, DCFDA, promastigotes; format: cell-based; conditions: 30 μM
Protocol: (§2) 50,000 RAW264.7 were seeded in each well of black 96-well plates overnight. Next day, RAW264.7 cells were pre-loaded with 10 μM dichlorofluorescein diacetate (DCFDA) (Abcam) for 1 hr at 37° C. with 5% CO2. A control of non-DCFDA stained cells was also included. The DCFDA-contained supplemented DMEM media was removed. The cells were re-suspended with 10 μM or 30 μM of respective tested compounds and positive control, tert-butyl hydroperoxide. In Leishmania, 1×10^7 promastigotes were also pre-loaded with 10 μM DCFDA at 27° C. for 1 hr. After removing the DCFDA-contained media, the promastigotes were seeded into black 96-well plate and incubated with 30 μM of respective compounds or positive control. The ROS level was determined at different periods of time including 2, 4, 6, 8, 20, 46 and 72 hr using microplate reader (excitation: 485 nm and emission: […]).
(§3) The ROS levels in both macrophage RAW264.7 and L. amazonensis promastigotes was measured by dichlorofluorescein diacetate (DCFDA) dye which is permeable to the cells. With oxidative stress, DCFDA would be oxidized to fluorescent DCF which is an indicator of intracellular ROS level. RAW cells or L. amazonensis promastigotes were pre-loaded with 10 μM of DCFDA for 1 hr, washed and exposed to 39, FM09, pentamidine and amphotericin B for different period of time (2, 4, 6, 8, 20, 46 and 72 hr). The fluorescence level was measured at the 520 nm using 485 nm as an excitation wavelength. 0.1% DMSO or 0.3% DMSO was used as a solvent control. The fluorescent value has been subtracted from non-DCFDA stained cells. The values were presented as mean±standard error of mean.

[3] = system: L. donovani Ld39 amastigotes (SSG-resistant); assay: Anti-amastigote activity in infected PEM, L. donovani Ld39; format: cell-based; conditions: infected PEM, 3 days, Giemsa; SSG-resistant
In short: (§4)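 IC50 values derive from the number of amastigotes per 100 macrophages, counted on Giemsa-stained cover slips. Infected mouse PEM had been treated for 72 h at 37 °C.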

[4] = system: peritoneal elicited macrophages (PEM); assay: Cytotoxicity, peritoneal elicited macrophages (PEM); format: cell-based, mouse; conditions: peritoneal elicited macrophages; read-out: Cytotoxicity IC50, PEM
[5] = system: L. amazonensis LV78 amastigotes; assay: Anti-amastigote activity in infected PEM, L. amazonensis LV78; format: cell-based; conditions: infected PEM, 3 days, Giemsa
In short: as §4

[6] = system: L. donovani Ld39 promastigotes; assay: Anti-promastigote activity (MTS assay), L. donovani Ld39; format: cell-based; conditions: 72 hours
In short: as §1

[7] = system: L. amazonensis LV78 promastigotes; assay: Anti-promastigote activity (MTS assay), L. amazonensis LV78; format: cell-based; conditions: 72 hours
In short: as §1

RAW264.7 cells [8] = assay: Reactive oxygen species (ROS) level, DCFDA, RAW264.7; format: cell-based, murine
Protocol: as §2, §3

RAW264.7 cells [9] = assay: Cytotoxicity, RAW264.7 macrophages; format: cell-based; conditions: murine macrophages RAW264.7
Protocol: Promastigotes of visceral L. donovani Ld39 and LdHU3, and cutaneous L. amazonensis LV78, L. braziliensis UA847 and L. major FV1 were employed in the study. All strains were cultured in Schneider's Drosophila Medium (Invitrogen), pH 6.9 supplemented with 10% (v/v) heat inactivated fetal bovine serum (Hyclone) with 4 mM glutamine (Sigma) and 25 μg/mL gentamicin solution (Invitrogen) at 27° C. for 4 days. RAW264.7 cells were cultured in supplemented DMEM media with 10% heat inactivated FBS and 100 U/mL penicillin and 100 μg/mL of streptomycin. They were maintained at 37° C. in a humidified atmosphere with 5% CO2. The cells were split constantly after a confluent monolayer has been formed. The cells were harvested by a cell scraper.
IC50 values of known antileishmanials and the amine-containing flavonoid monomers of the present invention to promastigotes (L. amazonensis LV78, L major FV1, L. donovani HU3, L. donovani 39), macrophages (Raw 264.7 and PEM) and mouse fibroblast (L929) were determined. The anti-promastigotes activities and cytotoxicity of the amine-containing flavonoid monomers of the invention are shown in Table 1.

[10] = system: L. braziliensis UA847 amastigotes; assay: Anti-amastigote activity in infected PEM, L. braziliensis UA847; format: cell-based; conditions: 3 days, Giemsa, read-out: Anti-amastigote activity IC50, L. baziliensis UA847
Protocol: Mouse peritoneal elicited macrophages (PEM) were obtained as previously described (2). A round cover slip (12 mm in diameter) was placed into each well of 24-well culture plate. Mouse PEM were resuspended in supplemented DMEM media containing 10% heat inactivated FBS (v/v), 100 U/mL penicillin and 100 μg/mL streptomycin and seeded into each well at a cell density of 1×10^5 cells per 500 μL. Macrophages were allowed to attach overnight. Non-adherent cells were removed by gentle washing with un-supplemented DMEM media twice. Adherent macrophages were infected with late-log promastigotes at a parasite-to-macrophage ratio of 20:1 overnight at 37° C. with 5% CO2. Non-internalized promastigotes were removed by washing twice with un-supplemented DMEM media. Infected macrophages were further incubated in 500 μL of supplemented DMEM media in the presence or absence of FM for 72 hours at 37° C. After incubation, cover slips were stained with Giemsa and the percentage of macrophages infected and number of amastigotes per 100 macrophages was enumerated.
PEM cells were infected with late-log promastigotes (L. amazonensis LV78, L. braziliensis UA847, L. donovani HU3, L. donovani 39) for 24 hr at 37° C. Infected macrophages were then treated with various antileishmanials and incubated for 3 days at 37° C. After 3 days, the cover slips were stained with Giemsa. The number of amastigotes per 100 macrophages were determined and used to calculate IC50 values.

[11] = system: L. major FV1 promastigotes; assay: Anti-promastigote activity (MTS assay), L. major FV1; format: cell-based; conditions: 72 hours
In short: as §1

C[C@@H]1[C@H](O)[C@@H](C)/C=C/C=C/C=C/C=C/C=C/C=C/C=C/[C@H](O[C@@H]2O[C@H](C)[C@@H](O)[C@H](N)[C@@H]2O)C[C@@H]2O[C@](O)(C[C@@H](O)C[C@@H](O)[C@H](O)CC[C@@H](O)C[C@@H](O)CC(=O)O[C@H]1C)C[C@H](O)[C@H]2C(=O)O [Amphotericin B]
IC50 [1]: 200 nM | L. amazon LV78 promastigote ROS Level, Relative fold (RF) ([2]; 2 hr): 4.5 fold | L. amazon LV78 promastigote ROS Level, Relative fold (RF) ([2]; 4 hr): 5.6 fold | L. amazon LV78 promastigote ROS Level, Relative fold (RF) ([2]; 6 hr): 7.5 fold | L. amazon LV78 promastigote ROS Level, Relative fold (RF) ([2]; 20 hr): 21 fold | L. amazon LV78 promastigote ROS Level, Relative fold (RF) ([2]; 46 hr): 27.1 fold | L. amazon LV78 promastigote ROS Level, Relative fold (RF) ([2]; 72 hr): 24.9 fold | IC50 [3]: 62 nM | IC50 [4]: 7400 ± 400 nM | IC50 [5]: 55 ± 29 nM | IC50 [6]: 95 ± 20 nM | IC50 [7]: 240 ± 30 nM | RAW264.7 ROS Level, Relative fold (RF) (RAW264.7 cells [8]; 10 μM, 2 hr): 1.4 fold | RAW264.7 ROS Level, Relative fold (RF) (RAW264.7 cells [8]; 10 μM, 4 hr): 1.4 fold | RAW264.7 ROS Level, Relative fold (RF) (RAW264.7 cells [8]; 10 μM, 6 hr): 1.4 fold | RAW264.7 ROS Level, Relative fold (RF) (RAW264.7 cells [8]; 10 μM, 8 hr): 1.2 fold | RAW264.7 ROS Level, Relative fold (RF) (RAW264.7 cells [8]; 10 μM, 20 hr): 1.0 fold | ROS induction in macrophages (RAW264.7 cells [8]; 10 μM, RAW264.7): No ROS induction | RAW264.7 ROS Level, Relative fold (RF) (RAW264.7 cells [8]; 30 μM, 2 hr): 1.6 fold | RAW264.7 ROS Level, Relative fold (RF) (RAW264.7 cells [8]; 30 μM, 4 hr): 1.6 fold | RAW264.7 ROS Level, Relative fold (RF) (RAW264.7 cells [8]; 30 μM, 6 hr): 1.5 fold | RAW264.7 ROS Level, Relative fold (RF) (RAW264.7 cells [8]; 30 μM, 20 hr): 1.3 fold | RAW264.7 ROS Level, Relative fold (RF) (RAW264.7 cells [8]; 30 μM, 46 hr): 1.3 fold | IC50 (RAW264.7 cells [9]): 12000 ± 2500 nM | IC50 [10]: 49 ± 10 nM | IC50 [11]: 290 ± 50 nM
